Literature values as cited in patent publication US12702640B2, “Drug implants containing enzalutamide and methods of use thereof” (The Regents of the University of California, priority 2021, dated 2026).

Settings: assuming 240 mg daily dose; systemic (e.g., oral) administration

For `CNC(=O)c1ccc(N2C(=S)N(c3ccc(C#N)c(C(F)(F)F)c3)C(=O)C2(C)C)cc1F` [enzalutamide, Enzalutamide], the “steady state blood plasma concentration” value is given as “about 6 μg/ml”.
